Consider 14 compounds from US4472305A, “Hexapeptide amides” (Sterling Drug Inc., priority 1983, dated 1984).

Non-standard residues stand in square brackets, D forms with d. Residues, ends and D or L forms follow the SMILES beside them. Gly(NCH2CH2Ph) = O=C(O)CNCCc1ccccc1; NMeF = CN[C@@H](Cc1ccccc1)C(=O)O; 4Pal = N[C@@H](Cc1ccncc1)C(=O)O; Dap(Me2) = CN(C)C[C@H](N)C(=O)O; d4Pal = N[C@H](Cc1ccncc1)C(=O)O; dPhg = N[C@@H](C(=O)O)c1ccccc1; NMeL = CN[C@@H](CC(C)C)C(=O)O; Nphe = O=C(O)CNCc1ccccc1; Dap = NC[C@H](N)C(=O)O; Sar = CNCC(=O)O

T1 sequence (P14600 whole entry): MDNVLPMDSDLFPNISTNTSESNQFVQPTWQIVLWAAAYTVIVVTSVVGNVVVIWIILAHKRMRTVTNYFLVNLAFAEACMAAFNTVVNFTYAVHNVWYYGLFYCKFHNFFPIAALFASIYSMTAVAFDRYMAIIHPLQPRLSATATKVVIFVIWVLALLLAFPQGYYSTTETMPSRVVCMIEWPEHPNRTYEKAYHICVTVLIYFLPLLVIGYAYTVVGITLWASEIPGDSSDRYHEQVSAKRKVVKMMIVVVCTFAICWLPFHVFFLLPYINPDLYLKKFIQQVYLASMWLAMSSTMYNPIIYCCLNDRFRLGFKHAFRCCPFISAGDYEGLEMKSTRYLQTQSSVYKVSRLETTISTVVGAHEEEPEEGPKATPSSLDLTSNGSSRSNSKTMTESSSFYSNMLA

One experiment addresses T1, SP receptor (Rattus norvegicus, UniProt P14600).
T1 construct: from tissue; host or cells: rat submaxillary gland (crude tissue suspension)
As to the kind of experiment: 3H-SP binding test, rat submaxillary gland tissue. To be noted: 30 μM test compound; rat submaxillary gland tissue (Examples 1-34); read-out: 3H-SP Binding % Inhibition. As to the method:
Crude rat submaxillary gland or brain tissue is suspended in buffer containing protease inhibitors (and calcium ions and magnesium ions in the case of brain tissue) and incubated under nitrogen atmosphere with ^3 H-SP and test compound. The bound SP is then separated from free SP by filtration and quantitated by liquid scintillation spectroscopy. This test meets the criteria of reversibility, saturability, sensitivity to known SP agonists and antagonists, and specificity for an SP receptor binding assay.
With regard to reversibility, addition of unlabelled SP causes a gradual decrease in bound ^3 H-SP, showing that SP is not irreversibly bound to the receptors in the tissue. With regard to saturability, the amount of bound ^3 H-SP in the preparation increases in direct proportion to the concentration of ^3 H-SP added until a saturation point is reached. […] With regard to sensitivity, known SP agonists and antagonists inhibit ^3 H-SP binding.
The results are expressed either as percent inhibition at a concentration of 30 micromoles per liter (μM) or as an IC50 calculated as the concentration in micromoles per liter.
The ^3 H-SP binding test results were obtained using rat submaxillary gland tissue for Examples 1-34 and rat brain tissue for Examples 35-42.
`CSCC[C@H](NC(=O)[C@H](CC(C)C)NC(=O)CNC(=O)[C@H](Cc1ccccc1)N(C)C(=O)[C@H](Cc1ccccc1)NC(=O)[C@@H]1CCCN1)C(N)=O` [Example 2, HPro-Phe-MePhe-Gly-Leu-MetNH2] (H-PF[NMeF]GLM-NH2): the inhibition at 30 µM stood at 25%.
The same measure, in the same setting: to `CSCC[C@H](NC(=O)[C@H](CC(C)C)N(C)C(=O)CNC(=O)[C@H](Cc1ccccc1)NC(=O)[C@H](Cc1ccccc1)NC(=O)[C@@H]1CCCN1)C(N)=O` [Example 5, HPro-Phe-Phe-Gly-MeLeu-MetNH2] (H-PFFG[NMeL]M-NH2) belongs 75%; to `CSCC[C@H](NC(=O)[C@H](CC(C)C)NC(=O)CN(C)C(=O)[C@H](Cc1ccccc1)N(C)C(=O)[C@H](Cc1ccccc1)NC(=O)[C@@H]1CCCN1)C(N)=O` [Example 11, HPro-Phe-MePhe-Sar-Leu-MetNH2] (H-PF[NMeF][Sar]LM-NH2), 11%.
The same measure, in the same setting: then `CSCC[C@H](NC(=O)[C@H](CC(C)C)NC(=O)[C@H](CN)NC(=O)[C@H](Cc1ccccc1)NC(=O)[C@H](Cc1ccccc1)NC(=O)[C@@H]1CCCN1)C(N)=O` [Example 13, HPro-Phe-Phe-LDap-Leu-MetNH2] (H-PFF[Dap]LM-NH2), with 15%; and `CSCC[C@H](NC(=O)[C@H](CC(C)C)N1CC[C@H](NC(=O)[C@H](Cc2ccccc2)NC(=O)[C@H](Cc2ccccc2)NC(=O)[C@@H]2CCCN2)C1=O)C(N)=O` [Example 14, HPro-Phe-Phe-CabLeu-MetNH2], with 10%.
`CSCC[C@H](NC(=O)[C@H](CN(C)C)NC(=O)CNC(=O)[C@H](Cc1ccccc1)NC(=O)[C@H](Cc1ccccc1)NC(=O)[C@@H]1CCCN1)C(N)=O` [Example 16, HPro-Phe-Phe-Gly-Gal-MetNH2] (H-PFFG[Dap(Me2)]M-NH2): the inhibition at 30 µM worked out at 13%.
The same measure, in the same setting: then `CSCC[C@H](NC(=O)[C@H](CC(C)C)NC(=O)[C@H](Cc1ccncc1)NC(=O)[C@H](Cc1ccccc1)NC(=O)[C@H](Cc1ccccc1)NC(=O)[C@@H]1CCCN1)C(N)=O` [Example 19] (H-PFF[4Pal]LM-NH2), with 42%; and `CSCC[C@H](NC(=O)[C@H](CC(C)C)NC(=O)[C@@H](Cc1ccncc1)NC(=O)[C@H](Cc1ccccc1)NC(=O)[C@H](Cc1ccccc1)NC(=O)[C@@H]1CCCN1)C(N)=O` [Example 20] (H-PFF[d4Pal]LM-NH2), with 20%.
`CSCC[C@H](NC(=O)[C@H](CC(C)C)NC(=O)[C@@H](Cc1ccccc1)NC(=O)CN(Cc1ccccc1)C(=O)[C@@H](Cc1ccccc1)NC(=O)[C@@H]1CCCN1)C(N)=O` [Example 30, HPro-DPhe-Bgl-DPhe-Leu-MetNH2] (H-P[dF][Nphe][dF]LM-NH2): the inhibition at 30 µM was found to be 40%.
On the same count and under the same terms, then `CSCC[C@H](NC(=O)[C@H](CC(C)C)NC(=O)[C@@H](Cc1ccccc1)NC(=O)CN(CCc1ccccc1)C(=O)[C@@H](Cc1ccccc1)NC(=O)[C@@H]1CCCN1)C(N)=O` [Example 32, HPro-DPhe-Pgl-DPhe-Leu-MetNH2] (H-P[dF][Gly(NCH2CH2Ph)][dF]LM-NH2), with 40%; and `CSCC[C@H](NC(=O)[C@H](CC(C)C)NC(=O)[C@@H](CCCCN)NC(=O)[C@H](Cc1ccccc1)NC(=O)[C@@H](Cc1c[nH]c2ccccc12)NC(=O)[C@@H]1CCCN1)C(N)=O` [Example 33, HPro-DTrp-Phe-DLys-Leu-MetNH2] (H-P[dW]F[dK]LM-NH2), with 15%.

The experiment is the same for the next values; noted with them: rat submaxillary gland or brain tissue preparation, tissue not specified.
As to `NCC(CC(=O)O)c1ccc(Cl)cc1` (centres unmarked) [baclofen, reference compound], the “effect on 3H-SP binding (specificity)” value is listed as “do not affect”.
On the same count and under the same terms, then `COc1cc(CNC(=O)CCCC/C=C/C(C)C)ccc1O` [capsaicin, reference compound], with “do not affect”.

Staying with this experiment, now noted: read-out: 3H-SP Binding % Inhibition.
Take `CSCC[C@H](NC(=O)[C@H](CC(C)C)NC(=O)[C@@H](Cc1ccccc1)NC(=O)[C@H](Cc1ccccc1)NC(=O)[C@H](NC(=O)[C@@H]1CCCN1)c1ccccc1)C(N)=O` [Example 28, HPro-DPhg-Phe-DPhe-Leu-MetNH2] (H-P[dPhg]F[dF]LM-NH2): the inhibition at 30 µM was determined as 33%.
